Measured values as given in patent US20260274859A1, “FUSED POLYCYCLIC DERIVATIVE AND USE THEREOF” (ZHEJIANG HISUN PHARMACEUTICAL CO., LTD., priority 2023, published 2026).

Columns and labels:
A549 cells = experiment: Inhibition of proliferation of A549 cells (CCK8 or CTG); type: cell-based; conditions: Homo sapiens, maximum concentration 10 μM, 5-fold dilution
Procedure: (1) A549 cells in the logarithmic growth phase were digested with 0.25% trypsin and counted. The cells were inoculated into 96-well plates at 2000 cells per well, and the 96-well plates were placed in an incubator containing 5% CO2 at 37° C. for 12 h of culture.
(§1) (2) Six concentration gradients for the compounds to be tested (with the maximum drug concentration of 10 μM and 5-fold dilution) were set. After the cells adhered to the wall, the compounds to be tested were serially diluted with DMSO, then diluted with 1640 complete medium to reach a concentration 1000 times the final concentration, and added to the corresponding wells.
(§2) (3) After the corresponding concentrations of the compounds to be tested were added, the plates were incubated in an incubator with 5% carbon dioxide at 37° C., and then the cell viability rate at each drug concentration was determined by CCK8 or CTG method. In addition, the IC50 value was calculated.

HK-2 cells = experiment: Inhibition of proliferation of HK-2 cells (normal cells; CCK8 or CTG); type: cell-based; conditions: Homo sapiens, maximum concentration 10 μM, 5-fold dilution
Procedure: (1) HK-2 cells in the logarithmic growth phase were digested with 0.25% trypsin and counted. The cells were inoculated into 96-well plates at 2000 cells per well, and the 96-well plates were placed and cultured in an incubator containing 5% CO2 at 37° C. for 12 h.
as §1, with “for the compound to be” for “for the compounds to be”
as §2

SMILES: CC(C)NC1CC(C(=O)Nc2sc3c(c2-c2nc4ccccc4s2)CCNC3)C1 (centres unmarked) [Compound 001, N-(3-(benzo[d]thiazol-2-yl)-4,5,6,7-tetrahydrothieno[2,3-c]pyridin-2-yl)-3-(isopropylamino)cyclobutane-1-carboxamide]
- IC50 (A549 cells): 0.00049 µM
- IC50 (HK-2 cells): 0.759 µM

SMILES: CC(C)NC1CC(C(=O)Nc2sc3c(c2-c2nc4ccc(C5=CCNCC5)cc4s2)CCN(C2CCCC2)C3)C1 (centres unmarked) [Compound 054, N-(6-cyclopentyl-3-(6-(1,2,3,6-tetrahydropyridin-4-yl)benzo[d]thiazol-2-yl)-4,5,6,7-tetrahydrothieno[2,3-c]pyridin-2-yl)-3-(isopropylamino)cyclobutane-1-carboxamide]
- IC50 (A549 cells): 0.0218 µM

SMILES: CC(C)NC1CCC(C(=O)Nc2sc3c(c2-c2nc4ccc(-c5ccc(N6CCNCC6)nc5)cc4s2)CCNC3)C1 (centres unmarked) [Compound 060, 3-(isopropylamino)-N-(3-(6-(6-(piperazin-1-yl)pyridin-3-yl)benzo[d]thiazol-2-yl)-4,5,6,7-tetrahydrothieno [2,3-c]pyridin-2-yl) cyclopentane-1-carboxamide]
- IC50 (A549 cells): 0.0168 µM
- IC50 (HK-2 cells): 1.1 µM

SMILES: CC(C)NCCCNc1sc2c(c1-c1nc3ccc(-c4ccc(N5CCNCC5)nc4)cc3s1)CCNC2 [Compound 082, N^1-isopropyl-N^3-(3-(6-(6-(piperazin-1-yl)pyridin-3-yl)benzo[d]thiazol-2-yl)-4,5,6,7-tetrahydrothieno[2,3-c]pyridin-2-yl) propane-1,3-diamine]
- IC50 (HK-2 cells): 4.51 µM

SMILES: CN(C)CCNC(=O)CNc1sc2c(c1-c1nc3ccccc3s1)CCNC2 [Compound 086, 2-((3-(benzo[d]thiazol-2-yl)-4,5,6,7-tetrahydrothieno [2,3-c]pyridin-2-yl)amino)-N-(2-(dimethylamino)ethyl)acetamide]
- IC50 (HK-2 cells): 7.56 µM

SMILES: CC(=O)N1CCc2c(sc(NC(=O)C3CC(NC(C)C)C3)c2-c2nc3ccc(-c4ccc(N5CCNCC5)nc4)cc3s2)C1 (centres unmarked) [Compound 122, N-(6-acetyl-3-(6-(6-(piperazin-1-yl)pyridin-3-yl)benzo[d]thiazol-2-yl)-4,5,6,7-tetrahydrothieno[2,3-c]pyridin-2-yl)-3-(isopropylamino)cyclobutane-1-carboxamide]
- IC50 (HK-2 cells): 1.04 µM

SMILES: CC(C)NC1CCC(C(=O)Nc2sc3c(c2-c2nc4ccc(Br)cc4s2)CCNC3)CC1 (centres unmarked) [Compound 123, N-(3-(6-bromobenzo[d]thiazol-2-yl)-4,5,6,7-tetrahydrothieno[2,3-c]pyridin-2-yl)-4-(isopropylamino) cyclohexane-1-carboxamide]
- IC50 (HK-2 cells): 0.937 µM

SMILES: CC(C)NC1CCC(C(=O)Nc2sc3c(c2-c2nc4ccc(C5=CCNCC5)cc4s2)CCNC3)CC1 (centres unmarked) [Compound 124, 4-(isopropylamino)-N-(3-(6-(1,2,3,6-tetrahydropyridin-4-yl)benzo[d]thiazol-2-yl)-4,5,6,7-tetrahydrothieno [2,3-c]pyridin-2-yl) cyclohexane-1-carboxamide]
- IC50 (A549 cells): 0.00737 µM
- IC50 (HK-2 cells): 3.27 µM

SMILES: CN1CCN(c2sc3c(c2-c2nc4ccc(-c5ccc(N6CCNCC6)nc5)cc4s2)CCNC3)CC1 [Compound 126, 2-(2-(4-methylpiperazin-1-yl)-4,5,6,7-tetrahydrothieno [2,3-c]pyridin-3-yl)-6-(6-(piperazin-1-yl)pyridin-3-yl)benzo[d]thiazole]
- IC50 (HK-2 cells): 1.18 µM

SMILES: CC(C)NC1CC(C(=O)N(C)c2sc3c(c2-c2nc4ccc(-c5ccc(N6CCNCC6)nc5)cc4s2)CCNC3)C1 (centres unmarked) [Compound 134, 3-(isopropylamino)-N-methyl-N-(3-(6-(6-(piperazin-1-yl)pyridin-3-yl)benzo [d]thiazol-2-yl)-4,5,6,7-tetrahydrothieno[2,3-c]pyridin-2-yl)cyclobutane-1-carboxamide]
- IC50 (A549 cells): 0.00066 µM

SMILES: CC(=O)NC1CC(C(=O)Nc2sc3c(c2-c2nc4ccc(C5=CCN(C(C)=O)CC5)cc4s2)CCNC3)C1 (centres unmarked) [Compound 141]
- IC50 (HK-2 cells): 1.46 µM
